Results reported in patent US20100056606A1, “Combination therapy using budesonide and antisense oligonucleotide targeted to IL4-receptor alpha” (ISIS Pharmaceuticals, Inc., priority 2005, published 2010).

Tests used:
OVA sensitized mice [1] = assay: Acute allergic inflammation mouse model with inhaled budesonide and/or ISIS 231894; format: in vivo
Procedure: In the mouse model of allergic inflammation, mice are sensitized and challenged with aerosolized chicken ovalbumin (OVA). Airway responsiveness is assessed by inducing airflow obstruction using a noninvasive method whereby unrestrained conscious OVA sensitized mice are placed into the main chamber of a plethysmograph (Buxco Electronics, Inc. Troy, N.Y.) and challenged with aerosolized methacholine. Pressure difference between this chamber and a reference chamber is used to extrapolate minute volume, breathing frequency and enhanced pause (Penh). Penh is a dimensionless parameter that is a function of total pulmonary airflow (i.e. the sum of the airflow in the upper and lower respiratory tracts) during the respiratory cycle of a mouse and is lower when airflow is greater.
For the acute model of allergic inflammation, mice were sensitized with 20 μg of alum-precipitated OVA was injected intraperitoneally on days 0 and 14. On days 24, 25 and 26, animals were exposed for 20 minutes to 1% OVA (in saline) by ultrasonic nebulization. On days 17, 19, 21, 24 and 26 animals were dosed with vehicle alone (saline), 1 μg/kg or 10 μg/kg of ISIS 231894 or the mismatch control oligonucleotide. Oligonucleotides or vehicle were suspended in 0.9% sodium chloride and delivered via inhalation using a nose-only aerosol delivery exposure system. A Lovelace nebulizer set at a flow rate of 1.4 liter per minute feeding into a total flow rate of 10 liters per minute was used to deliver the oligonucleotide. The exposure chamber was equilibrated with an oligonucleotide aerosol solution for 5 minutes before mice were placed in a restraint tube attached to the chamber. Restrained mice were treated for a total of 10 minutes. Analysis was performed on day 28.
The acute mouse model of allergic inflammation was used to determine if co-administration of inhaled IL-4R alpha antisense oligonucleotide would enhance the activity of inhaled budesonide, or reduce the dose required to produce anti-inflammatory activity. As described in Example 6, mice were sensitized with alum-precipitated OVA at day 0 and day 14 and nebulized with OVA in saline on days 24, 25 and 26. All mice were analyzed on day 28. Budesonide (0.3, 3, 30, and 300 μg/kg dissolved in PBS Containing 20% DMSO) was administered by nose-only aerosol exposure beginning on day 23 (24 and 20 hours before OVA exposure) and then daily through day 26, one hour prior to daily OVA exposure. The 30 μg/kg dose was also administered twice a day (bid) from day 23-26 as a separate group. As in Example 6, ISIS 231894 was administered by nose-only aerosol exposure at day 17, 19, 21, 23 and 26.
The effect of budesonide and/or ISIS 231894 treatment on AHR, BAL eosinophil infiltration and mucus accumulation (number of PAS-positive airways) were determined.

OVA sensitized mice [2] = assay: Allergic rhinitis mouse model, intranasal administration; format: in vivo
Procedure: In a mouse model of allergic rhinitis, animals were sensitized intraperitoneally with alum-precipitated OVA on days 1, 5, 10 and 15. OVA diluted with saline was administered intranasally (25 μL of 500 μg OVA in each nare) daily, on days 18-22, 25-29, and 32-35. ISIS 231894 and budesonide were administered intranasally, with budesonide administration one hour before each intranasal OVA challenge. ISIS 231894 was administered on days 11, 13, 15, and one hour before each intranasal OVA challenge. Endpoints were evaluated on day 36 and included nasal mucus accumulation (nasal histopathology) nasal eosinophilia, neutrophilia (by nasal lavage analysis and microscopic eosinophil counts in epithelial tissue) and allergic symptoms (numbers of sneezes and nose-rubs observed over a fixed time period).

OVA sensitized mice [3] = assay: Mouse model of allergic inflammation, chronic model (Penh, BAL cells, cytokines); format: in vivo; conditions: 2.5 mg/kg intraperitoneal, day 76
Procedure: In the mouse model of allergic inflammation, mice are sensitized and challenged with aerosolized chicken ovalbumin (OVA). Airway responsiveness is assessed by inducing airflow obstruction using a noninvasive method whereby unrestrained conscious OVA sensitized mice are placed into the main chamber of a plethysmograph (Buxco Electronics, Inc. Troy, N.Y.) and challenged with aerosolized methacholine. Pressure difference between this chamber and a reference chamber is used to extrapolate minute volume, breathing frequency and enhanced pause (Penh). Penh is a dimensionless parameter that is a function of total pulmonary airflow (i.e. the sum of the airflow in the upper and lower respiratory tracts) during the respiratory cycle of a mouse and is […] when airflow is greater. This parameter closely correlates with lung resistance as measured by traditional, invasive techniques using ventilated animals (Hamelmann et al., 1997, Am. J. Respir. Crit. Care Med. 156:766-775).
In the chronic model of allergic inflammation, mice are subjected to repeated intranasal OVA administration, producing a chronic inflammatory response. In this model, mice were sensitized by intraperitoneal injection with 100 μg of OVA on days 0 and 14 as in the previous models. OVA was administered at a dose of 500 μg on days 14, 27, 28, 29, 47, 61, 73, 74 and 75. Oligonucleotide, either ISIS 231894 or the mismatch control, was administered via the nose-only aerosol delivery exposure system at a dose of either 5 μg/kg or 500 μg/kg on days 31, 38, 45, 52, 59, 66 and 73. Dexamethasone, an anti-inflammatory agent, was administered by intraperitoneal injection at 2.5 mg/kg on days 47, 62, 73, 74 and 75. Analysis of endpoints was performed on day 76, except cytokines which were evaluated on day 62, 6 hours post OVA challenge. Endpoints were similar to those in the acute and rechallenge model, and included Penh (AHR), BAL inflammatory cell accumulation and cytokines and mucus accumulation.

MUC2 mRNA = assay: Reduction of cytokine-induced MUC2 mRNA in human cells; format: cell-based; conditions: human A549 cells (table title)
IL-4R alpha mRNA = assay: Dose-dependent reduction of IL-4R alpha mRNA in human A549 cells; format: cell-based
Excerpt: The human lung carcinoma cell line A549 was obtained from the American Type Culture Collection (Manassas, Va.). A549 cells were routinely cultured in DMEM, high glucose (Invitrogen Life Technologies, Carlsbad, Calif.) supplemented with 10% fetal bovine serum, 100 units per ml penicillin, and 100 micrograms per ml streptomycin (Invitrogen Life Technologies, Carlsbad, Calif.). Cells were routinely passaged by trypsinization and dilution when they reached approximately 90% confluence. Cells were seeded into 96-well plates (Falcon-Primaria #3872) at a density of approximately 5000 cells/well for use in oligomeric compound transfection experiments.
When cells reach appropriate confluency, they are treated with oligonucleotide using Lipofectin™ as described. When cells reached 65-75% confluency, they were treated with oligonucleotide. Oligonucleotide was mixed with LIPOFECTIN™ Invitrogen Life Technologies, Carlsbad, Calif.) in Opti-MEM™-1 reduced serum medium (Invitrogen Life Technologies, Carlsbad, Calif.) to achieve the desired concentration of oligonucleotide and a LIPOFECTIN™ concentration of 2.5 or 3 […] oligonucleotide. This transfection mixture was incubated at room temperature for approximately 0.5 hours. For cells grown in 96-well plates, wells were washed once with 100 μL OPTI-MEM™-1 and then treated with 130 μL of the transfection mixture. Cells grown in 24-well plates or other standard tissue culture plates are treated similarly, using appropriate volumes of medium and oligonucleotide. […]
Quantitation of IL-4R alpha mRNA levels was accomplished by real-time quantitative PCR using the ABI PRISM™ 7600, 7700, or 7900 Sequence Detection System (PE-Applied Biosystems, Foster City, Calif.) according to manufacturer's instructions.
In both cell types, at concentrations of 100 nM, 50 nM and 25 nM, ASOs 1-4 each caused dose-dependent reduction of target (TL-4R alpha) mRNA and protein (as measured by flow cytometry) with no significant effect on total cellular mRNA, measured 24 hours following ASO treatment.

[4] = mouse, in vivo
[5] = 30 μg/kg budesonide alone (Table 9)
[6] = Table 11, 35 μg/kg + 5% DMSO intranasal
[7] = Table 11, 35 μg/kg + 20% DMSO intranasal

## CCCC1O[C@@H]2C[C@H]3[C@@H]4CCC5=CC(=O)C=C[C@]5(C)[C@H]4[C@@H](O)C[C@]3(C)[C@]2(C(=O)CO)O1 (some centres unmarked) [budesonide]
OVA sensitized mice [1]; 0.3 μg/kg inhaled (Table 8)
  % Eosinophils (BAL): 41%
  Penh (100 mg/mL methacholine): 4.75
OVA sensitized mice [1]; 3 μg/kg inhaled (Table 8)
  % Eosinophils (BAL): 32%
  Penh (100 mg/mL methacholine): 4.5
OVA sensitized mice [1]; 30 μg/kg bid inhaled
  % Eosinophils (BAL): 20%
  Penh (100 mg/mL methacholine): 3.25
OVA sensitized mice [1]; [5]
  % Eosinophils (BAL): 20%
  PAS+ airways (mucus accumulation): 18
  Penh (100 mg/mL methacholine): 5.5
OVA sensitized mice [1]; 30 μg/kg inhaled (Table 8)
  % Eosinophils (BAL): 21%
  Penh (100 mg/mL methacholine): 3.25
OVA sensitized mice [1]; 300 μg/kg inhaled (Table 8)
  % Eosinophils (BAL): 15%
  Penh (100 mg/mL methacholine): 3.75
OVA sensitized mice [1]; inhaled
  minimum effective dose: 0.03 mg/kg
OVA sensitized mice [2]; Table 10, 3.5 μg/kg intranasal
  Nasal rubs: 5 per 5 min
  Sneezes: 6 per 5 min
OVA sensitized mice [2]; Table 10, 35 μg/kg intranasal
  % Nasal lavage eosinophils: 11%
  % Nasal lavage neutrophils: 28%
  Nasal rubs: 4.5 per 5 min
  Sneezes: 2 per 5 min
OVA sensitized mice [2]; Table 10, 350 μg/kg intranasal
  % Nasal lavage eosinophils: 4%
  % Nasal lavage neutrophils: 12%
  Nasal rubs: 4 per 5 min
  Sneezes: 3 per 5 min
OVA sensitized mice [2]; Table 10, 500 μg/kg intranasal
  % Nasal lavage eosinophils: 2%
  % Nasal lavage neutrophils: 6%
  Nasal rubs: 2 per 5 min
  Sneezes: 2 per 5 min
OVA sensitized mice [2]; [6]
  % Nasal lavage eosinophils: 7%
  % Nasal lavage neutrophils: 9%
  Nasal rubs: 0.6 per 5 min
  Sneezes: 2.8 per 5 min
  Tissue eosinophils: 174 per mm^2
OVA sensitized mice [2]; [7]
  % Nasal lavage eosinophils: 7%
  % Nasal lavage neutrophils: 12%
  Nasal rubs: 1.2 per 5 min
  Sneezes: 5.8 per 5 min

## C[C@@H]1C[C@H]2[C@@H]3CCC4=CC(=O)C=C[C@]4(C)[C@@]3(F)[C@@H](O)C[C@]2(C)[C@@]1(O)C(=O)CO [dexamethasone, reference compound]
OVA sensitized mice [3]
  % Eosinophils (BAL): 25%
  % Neutrophils (BAL): 58%

## ASO3: antisense oligonucleotide targeted to human IL-4R alpha; TGGAAAGGCTTATACCCCTC; SEQ ID NO: 25 (chemistry not given here)
MUC2 mRNA; 25 nM
  MUC-2 mRNA: 86 % of untreated control
MUC2 mRNA; 50 nM
  MUC-2 mRNA: 63 % of untreated control
MUC2 mRNA; 100 nM
  MUC-2 mRNA: 39 % of untreated control
IL-4R alpha mRNA; 25 nM
  IL-4R alpha mRNA: 45 % of untreated control
IL-4R alpha mRNA; 50 nM
  IL-4R alpha mRNA: 29 % of untreated control
IL-4R alpha mRNA; 100 nM
  IL-4R alpha mRNA: 17 % of untreated control
[4]
  macrophage infiltrate in the lung, in words: dose-related macrophage infiltrate was observed
[4]; ip
  serum chemistry markers or lung morphology (histology), in words: no change
